Data reported in patent publication US20190209465A1, “PROCESS FOR PREPARING PHARMACEUTICAL OPHTHALMIC COMPOSITIONS OF BRINZOLAMIDE” (priority 2016, published 2019).

What was measured:
[1] = Solubility study of oil/surfactant combination (excess drug, heating, centrifugation, HPLC of supernatant); format: physicochemical; details: in PEG 200 (5 g), on heating
[2] = Solubility study of ophthalmically acceptable excipients (visual, incremental addition of drug, then heating); format: physicochemical
[3] = Solubility study of oil/surfactant combination (excess drug, heating, centrifugation, HPLC of supernatant); format: physicochemical; details: for mg API dissolved temperature: on heating; for Assay: supernatant by HPLC
Method: Additional solubility trials were planned in order to see the impact of surfactant/oil combination on solubility of Brinzolamide. 5 g of each of the vehicles of Table 2 was added in 10 ml beakers under stirring, containing excesses of drug. Afterwards, the mixture was heated to improve solubilization. After equilibrium was achieved, the mixture was centrifuged at 4000 rpm for 10 minutes and the supernatant was quantified by high-performance liquid chromatography.

[4] = cited from earlier work
[5] = in Kolliphor EL + IPM (5 g + 1 g)
[6] = in Kolliphor EL + IPM (5 g + 3 g)
[7] = in Kolliphor EL + IPM (5 g + 5 g)
[8] = in Tween 80 + IPM + Kolliphor EL (5 g + 1 g + 3.1 g)
[9] = in Tween 80 + IPM + Kolliphor EL (5 g + 1 g + 4.6 g)
[10] = in Tween 80 + IPM + Kolliphor EL (5 g + 1 g + 12.5 g)

SMILES: CCN[C@H]1CN(CCCOC)S(=O)(=O)c2sc(S(N)(=O)=O)cc21 [Brinzolamide, (R)-4-ethylamino-3,4-dihydro-2-(3-methoxy) propyl-2H-thieno[3,2-e]-1,2-thiazine-6-sulfonamide 1, 1 dioxide]
- mg API dissolved temperature [1]: 1042.3 mg
- Brinzolamide dissolved in 10 g ([2]; in Anfopon): 60 mg
- Brinzolamide dissolved in 10 g ([2]; in Dubcare Olga SF): 60 mg
- Brinzolamide dissolved in 10 g ([2]; in Isopropyl Myristate (Kollicream IPM)): 60 mg
- Brinzolamide dissolved in 10 g ([2]; in Kolliphor EL): 1015.1 mg
- Brinzolamide dissolved in 10 g ([2]; in Kollisolv GTA): 210 mg
- Brinzolamide dissolved in 10 g ([2]; in Myritol 318): 60 mg
- Brinzolamide dissolved in 10 g ([2]; in PEG200): 2000 mg
- Brinzolamide dissolved in 10 g ([2]; in Radia 7104): 60 mg
- Brinzolamide dissolved in 10 g ([2]; in Sesame Oil): 60 mg
- Brinzolamide dissolved in 10 g ([2]; in Silicone Oil): 60 mg
- Brinzolamide dissolved in 10 g ([2]; in Transcutol): 800 mg
- Brinzolamide dissolved in 10 g ([2]; in Tween 80): 2000 mg
- API dissolved ([3]; in Kolliphor EL (5 g)): 203.0 mg/mL
- Total mg dissolved ([3]; in Kolliphor EL (5 g)): 1015.1 mg
- mg API dissolved @ RT ([3]; in Kolliphor EL (5 g)): 502.6 mg
- mg API dissolved temperature ([3]; in Kolliphor EL (5 g)): 512.5 mg
- Assay ([3]; in Kolliphor EL (5 g)): 177.65 mg/mL
- API dissolved [3, 5]: 167.1 mg/mL
- Total mg dissolved [3, 5]: 1002.3 mg
- mg API dissolved @ RT [3, 5]: 802.3 mg
- mg API dissolved temperature [3, 5]: 200.0 mg
- Assay [3, 5]: 104.70 mg/mL
- API dissolved [3, 6]: 126.6 mg/mL
- Total mg dissolved [3, 6]: 1012.7 mg
- mg API dissolved @ RT [3, 6]: 500.5 mg
- mg API dissolved temperature [3, 6]: 512.2 mg
- Assay [3, 6]: 76.75 mg/mL
- API dissolved [3, 7]: 70.8 mg/mL
- Total mg dissolved [3, 7]: 708.0 mg
- mg API dissolved @ RT [3, 7]: 401.3 mg
- mg API dissolved temperature [3, 7]: 306.7 mg
- Assay [3, 7]: 68.97 mg/mL
- API dissolved ([3]; in PEG 200 (5 g)): 390.1 mg/mL
- Total mg dissolved ([3]; in PEG 200 (5 g)): 1950.5 mg
- mg API dissolved @ RT ([3]; in PEG 200 (5 g)): 908.2 mg
- Assay ([3]; in PEG 200 (5 g)): 236.63 mg/mL
- API dissolved ([3]; in Transcutol (5 g)): 400.0 mg/mL
- Total mg dissolved ([3]; in Transcutol (5 g)): 2.000 mg
- mg API dissolved @ RT ([3]; in Transcutol (5 g)): 1008.5 mg
- mg API dissolved temperature ([3]; in Transcutol (5 g)): 991.5 mg
- Assay ([3]; in Transcutol (5 g)): 189.94 mg/mL
- API dissolved ([3]; in Tween 80 (5 g)): 204.2 mg/mL
- Total mg dissolved ([3]; in Tween 80 (5 g)): 1020.9 mg
- mg API dissolved @ RT ([3]; in Tween 80 (5 g)): 501.9 mg
- mg API dissolved temperature ([3]; in Tween 80 (5 g)): 519.0 mg
- Assay ([3]; in Tween 80 (5 g)): 169.08 mg/mL
- API dissolved ([3]; in Tween 80 + IPM (5 g + 1 g)): 133.8 mg/mL
- Total mg dissolved ([3]; in Tween 80 + IPM (5 g + 1 g)): 802.8 mg
- mg API dissolved @ RT ([3]; in Tween 80 + IPM (5 g + 1 g)): 400.9 mg
- mg API dissolved temperature ([3]; in Tween 80 + IPM (5 g + 1 g)): 401.9 mg
- Assay ([3]; in Tween 80 + IPM (5 g + 1 g)): 113.05 mg/mL
- API dissolved ([3]; in Tween 80 + IPM (5 g + 3 g)): 100.3 mg/mL
- Total mg dissolved ([3]; in Tween 80 + IPM (5 g + 3 g)): 802.7 mg
- mg API dissolved @ RT ([3]; in Tween 80 + IPM (5 g + 3 g)): 400.3 mg
- mg API dissolved temperature ([3]; in Tween 80 + IPM (5 g + 3 g)): 402.4 mg
- Assay ([3]; in Tween 80 + IPM (5 g + 3 g)): 84.49 mg/mL
- API dissolved ([3]; in Tween 80 + IPM (5 g + 5 g)): 90.9 mg/mL
- Total mg dissolved ([3]; in Tween 80 + IPM (5 g + 5 g)): 908.6 mg
- mg API dissolved @ RT ([3]; in Tween 80 + IPM (5 g + 5 g)): 400.0 mg
- mg API dissolved temperature ([3]; in Tween 80 + IPM (5 g + 5 g)): 508.6 mg
- Assay ([3]; in Tween 80 + IPM (5 g + 5 g)): 52.08 mg/mL
- API dissolved [3, 8]: 110.9 mg/mL
- Total mg dissolved [3, 8]: 1009.1 mg
- mg API dissolved @ RT [3, 8]: 501.5 mg
- mg API dissolved temperature [3, 8]: 507.6 mg
- Assay [3, 8]: 88.93 mg/mL
- API dissolved [3, 9]: 110.1 mg/mL
- Total mg dissolved [3, 9]: 1002.1 mg
- mg API dissolved @ RT [3, 9]: 404.0 mg
- mg API dissolved temperature [3, 9]: 602.1 mg
- Assay [3, 9]: 102.12 mg/mL
- API dissolved [3, 10]: 43.5 mg/mL
- Total mg dissolved [3, 10]: 805.6 mg
- mg API dissolved @ RT [3, 10]: 403.4 mg
- mg API dissolved temperature [3, 10]: 402.2 mg
- Assay [3, 10]: 39.65 mg/mL
- solubility in alcohol and methanol ([4]; alcohol and methanol): slightly soluble
- solubility in water versus pH ([4]; water, different pH): pH dependent with minimal solubility at neutral pH and increased solubility at more basic or acidic pH
- solubility in water ([4]; water): insoluble
